Source: patent EP4692088A1, “COMPOUND ACTING AS WRN HELICASE INHIBITOR” (SHANGHAI JEYOU PHARMACEUTICAL CO., LTD., priority 2023, dated 2024)
Where two headings read alike, the source gives them in different places.

How the values were obtained:
[1] = target: T1, WRN enzyme (Homo sapiens, UniProt Q14191); test: biochemical
T1 construct: host or cells: eukaryotic cells (not further specified)
Procedure: The WRN enzyme used in the experiment has a His-TEV tag at the N-terminus and is expressed in eukaryotic cells with a purity of 90%. The assay kit (ADP-Glo™ Kinase Assay) was purchased from Promega (Cat. No. V9101), aliquoted, and then stored in the refrigerator at -40°C. This kit could quantitatively detect the amount of ADP generated in the reaction. WRN hydrolyzed ATP to produce ADP. The ADP-Glo reagent was added to deplete excess ATP in the reaction system, followed by the addition of Kinase Detection Reagent to convert the ADP produced by the reaction into ATP and produce chemiluminescence. The enzyme activity of WRN can be reflected by detecting the chemiluminescence signal using a microplate reader.
Single-stranded DNA was annealed to form double-stranded DNA. 5× Annealing Buffer: 50 mM Tris pH 8.0, 100 mM NaCl. Annealing program: 95°C, 5 min.
2× WRN enzyme (1 nM) and 2× substrate (1 nM double-stranded DNA, 100 µM ATP) were prepared using a buffer (20 mM Bicine (pH 7.5), 10 mM KCl, 10 mM MgCl2, 0.005% BSG, 0.002% Tween 20, 1 mM TCEP). The test compound was dissolved in DMSO to 10 mM and was gradient-diluted using a 96-well V-bottom plate. First, 25 µL of 2× WRN enzyme and 0.5 µL of compound were added to a 96-well plate and incubated at room temperature for 30 min. Then, 25 µL of 2× substrate was added, and the reaction was carried out at room temperature for 60 min. 5 µL was taken from the reaction plate and transferred to a 384-well plate for detection. 5 µL of ADP-Glo reagent was added and incubated at room temperature for 60 min, followed by the addition of 10 µL of Kinase Detection Reagent and incubation at room temperature for 40 min. The chemiluminescence signal was detected using a microplate reader.

[2] = system: SW620 cells; test: Cell proliferation assay (CellTiter-Glo), SW620; format: cell-based; conditions: Homo sapiens, 120 h, SW-620 (MSS), 5 days incubation
Procedure: (§1) SW48 cells were plated at a density of 1,500 cells/well, and LoVo, HCT116, and SW620 cells were plated at a density of 800 cells/well in a 96-well cell culture plate, and cultured in a 37°C incubator overnight. The test compounds, which were gradient-diluted with DMSO, were added, and after incubation for 5 days, cell viability was detected using a CellTiter-Glo kit. The CellTiter-Glo reagent was equilibrated to room temperature, and an appropriate amount was added to the cell plate, followed by shaking at room temperature for 12 min. The luminescence signal was detected using a microplate reader.
(§2) The luminescence signal values of the DMSO-treated wells and cell-free wells were used as negative and positive controls, respectively, to calculate the inhibition rate of compound on cell proliferation. The concentration-inhibition curve was fitted using the "log(inhibitor) vs. normalized response -- Variable slope" equation in GraphPad Prism 8 software to obtain the IC50. [formula]

[3] = system: SW48 cells; test: Cell proliferation assay (CellTiter-Glo), SW48; format: cell-based; conditions: Homo sapiens, SW48, 120 h, SW-48, 5 days incubation
Procedure: as §1, §2

[4] = system: HCT116 cells; test: Cell proliferation assay (CellTiter-Glo), HCT116; format: cell-based; conditions: Homo sapiens, 120 h, HCT-116, 5 days incubation
Procedure: as §1, §2

[5] = system: LoVo; test: Cell proliferation assay (CellTiter-Glo), LoVo; format: cell-based; conditions: Homo sapiens, 120 h, 5 days incubation
Procedure: as §1, §2

[6] = read-out: WRN helicase activity (IC50 nM)

T1 sequence (Q14191 whole entry): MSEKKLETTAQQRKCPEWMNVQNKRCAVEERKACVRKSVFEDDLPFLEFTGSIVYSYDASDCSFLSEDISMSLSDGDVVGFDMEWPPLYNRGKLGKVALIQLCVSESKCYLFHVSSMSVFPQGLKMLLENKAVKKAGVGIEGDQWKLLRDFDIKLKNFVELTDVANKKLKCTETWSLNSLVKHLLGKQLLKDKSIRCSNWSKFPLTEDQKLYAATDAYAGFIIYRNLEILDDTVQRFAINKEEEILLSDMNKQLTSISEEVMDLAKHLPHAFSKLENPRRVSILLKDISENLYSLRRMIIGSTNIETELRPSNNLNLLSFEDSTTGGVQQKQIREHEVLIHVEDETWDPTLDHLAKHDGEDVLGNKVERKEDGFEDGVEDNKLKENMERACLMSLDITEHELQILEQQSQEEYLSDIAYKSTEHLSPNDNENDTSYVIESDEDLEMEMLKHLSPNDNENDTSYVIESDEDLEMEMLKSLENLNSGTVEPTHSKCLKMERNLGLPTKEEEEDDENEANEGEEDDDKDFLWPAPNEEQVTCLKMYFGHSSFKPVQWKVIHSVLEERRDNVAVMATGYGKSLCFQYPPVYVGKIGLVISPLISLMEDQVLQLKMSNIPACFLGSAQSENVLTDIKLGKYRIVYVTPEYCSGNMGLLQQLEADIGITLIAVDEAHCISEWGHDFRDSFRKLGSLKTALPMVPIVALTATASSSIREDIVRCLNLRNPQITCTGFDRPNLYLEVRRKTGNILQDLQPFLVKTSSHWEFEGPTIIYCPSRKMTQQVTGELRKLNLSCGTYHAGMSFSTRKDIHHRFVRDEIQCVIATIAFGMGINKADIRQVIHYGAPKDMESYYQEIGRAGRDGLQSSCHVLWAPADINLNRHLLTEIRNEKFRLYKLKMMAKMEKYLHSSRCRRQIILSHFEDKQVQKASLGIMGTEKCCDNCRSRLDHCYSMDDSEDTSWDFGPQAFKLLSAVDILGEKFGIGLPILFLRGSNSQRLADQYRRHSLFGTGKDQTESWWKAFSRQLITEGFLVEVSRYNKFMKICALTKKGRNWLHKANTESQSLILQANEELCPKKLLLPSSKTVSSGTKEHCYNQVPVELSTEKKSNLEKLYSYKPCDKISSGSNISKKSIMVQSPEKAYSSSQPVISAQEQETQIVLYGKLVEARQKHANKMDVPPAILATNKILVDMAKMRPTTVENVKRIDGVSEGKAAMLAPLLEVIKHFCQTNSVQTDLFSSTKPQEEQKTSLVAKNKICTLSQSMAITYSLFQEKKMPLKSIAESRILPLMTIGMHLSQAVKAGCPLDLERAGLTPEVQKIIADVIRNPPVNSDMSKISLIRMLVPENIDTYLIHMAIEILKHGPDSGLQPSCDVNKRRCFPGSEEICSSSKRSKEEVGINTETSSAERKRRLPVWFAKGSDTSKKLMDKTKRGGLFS

Structure (SMILES)	IC50 [1, 6] [nM]	IC50 [2] [nM]	IC50 [1] [nM]	IC50 [3] [nM]	IC50 [4] [nM]	IC50 [5] [nM]
CCc1c(N2CCN(C(=O)c3ncnc(C)c3O)CC2)c(=O)c2nn(C3=CCOCC3)nc2n1CC(=O)Nc1ccc(C(F)(F)F)cc1F [Example 9]	94.9					
CCc1c(N2CCN(C(=O)c3ncnc(C)c3O)CC2)c(=O)c2nn(C3=CCOCC3)nc2n1CC(=O)Nc1ccc(C(F)(F)F)cc1C [Example 8]		> 25000	118	133		
CCc1c(N2CCN(C(=O)c3ncnc(C)c3O)CC2)c(=O)c2nn(C3=CCOCC3)nc2n1CC(=O)Nc1ccc2c(c1)CC2 [Example 16]		> 25000	42.6	148		
CCc1c(N2CCN(C(=O)c3ncnc(C)c3O)CC2)c(=O)c2nn(C3=CCOCC3)nc2n1CC(=O)Nc1cc(Cl)c(C(F)(F)F)cc1C [Example 14]		> 25000	30.8	42.4		
CCc1c(N2CCN(C(=O)c3ncnc(C)c3O)CC2)c(=O)c2nn(C3=CCOCC3)nc2n1CC(=O)Nc1ccc2c(c1)CCC2 [Example 17]		> 25000	34.7	126		
CCc1c(N2CCN(C(=O)c3ncnc(C)c3O)CC2)c(=O)c2nn(C3=CCN(S(=O)(=O)C4CC4)CC3)cc2n1CC(=O)Nc1ccc(C(F)(F)F)cc1Cl [Example 11]	65.3					
CCc1c(N2CCN(C(=O)c3ncncc3O)CC2)c(=O)c2nn(C3=CCOCC3)nc2n1CC(=O)Nc1ccc(C(F)(F)F)cc1Cl [Example 18]		> 25000	64.3	51.1		
CCc1c(N2CCN(C(=O)c3ncnc(C)c3O)CC2)c(=O)c2nn(C3=CCOCC3)nc2n1CC(=O)Nc1cc(F)c(C(F)(F)F)cc1F [Example 23]		> 25000	41.9	102		
CCc1c(N2CCN(C(=O)c3ncccc3O)CC2)c(=O)c2nn(C3=CCOCC3)nc2n1CC(=O)Nc1cc(F)c(C(F)(F)F)cc1Cl [Example 19]		20700	44.3	60.9		
CCc1c(N2CCN(C(=O)c3ncnc(C)c3O)CC2)c(=O)c2nn(C3=CCOCC3)nc2n1CC(=O)Nc1ccc(S(F)(F)(F)(F)F)cc1 [Example 21]	24.4					
CCc1c(N2CCN(C(=O)c3ncnc(C)c3O)CC2)c(=O)c2nn(C3=CCOCC3)cc2n1CC(=O)Nc1ccc(C(F)(F)F)cc1Cl [Example 5]		> 25000		943	1580	2710
CCc1c(N2CCN(C(=O)c3ncnc(C)c3O)CC2)c(=O)c2nn(C3=CCOCC3)nc2n1CC(=O)Nc1ncc(C(F)(F)F)cc1Cl [Example 13]		> 25000	104		435	
CCc1c(N2CCN(C(=O)c3ncccc3O)CC2)c(=O)c2nn(C3=CCOCC3)cc2n1CC(=O)Nc1ccc(C(F)(F)F)cc1Cl [Example 6]		> 25000	134	324		
CCc1c(C2=CCN(C(=O)c3ncnc(C)c3O)CC2)c(=O)c2cn(C3=CCOCC3)nc2n1CC(=O)Nc1ccc(C(F)(F)F)cc1Cl [Example 10]		> 25000	238	331	552	871
CCc1c(N2CCN(C(=O)c3ncnc(C)c3O)CC2)c(=O)c2nn(C3=CCOCC3)cc2n1CC(=O)Nc1ccc(S(F)(F)(F)(F)F)cc1 [Example 12]		> 25000	86	317		
CCc1c(N2CCN(C(=O)c3ncccc3O)CC2)c(=O)c2nn(C3=CCOCC3)nc2n1CC(=O)Nc1ccc(C(F)(F)F)cc1Cl [Example 20]		23700	35.5	33.8		
